Assay [1] in a line: Effect on glutamate-induced neurotoxicity in rat hippocampal neurons assessed increase in neuronal membrane integrity at 1 nM after 48 hrs relative to glutamate. The class given is functional, Hippocampus, Hippocampal neurone.
Assay [2] in a line: Effect on glutamate-induced neurotoxicity in rat hippocampal neurons assessed increase in neuronal membrane integrity at 10 nM after 48 hrs relative to glutamate. The class given is functional, Hippocampus, Hippocampal neurone.
A short description of assay [3]: Effect on glutamate-induced neurotoxicity in rat hippocampal neurons assessed increase in neuronal membrane integrity at 100 nM after 48 hrs relative to glutamate. The class given is functional, Hippocampus, Hippocampal neurone.
Assay [4] can be described thus: Effect on glutamate-induced neurotoxicity in rat hippocampal neurons assessed increase in neuronal membrane integrity at 1000 nM after 48 hrs relative to glutamate. The class given is functional, Hippocampus, Hippocampal neurone.
Assay [5] is described as follows: Effect on glutamate-induced loss of metabolic viability in rat hippocampal neurons assessed as increase in neuronal viability at 100 nM after 48 hrs relative to glutamate. The class given is functional, Hippocampus, Hippocampal neurone.
Assay [6] in a line: Effect on glutamate-induced loss of metabolic viability in rat hippocampal neurons assessed as increase in neuronal viability at 1000 nM after 48 hrs relative to glutamate. The class given is functional, Hippocampus, Hippocampal neurone.
Assay [7] can be described thus: Effect on glutamate-induced loss of metabolic viability in rat hippocampal neurons assessed as increase in neuronal viability at 1 nM after 48 hrs relative to glutamate. The class given is functional, Hippocampus, Hippocampal neurone.
Assay [8] is described as follows: Effect on glutamate-induced loss of metabolic viability in rat hippocampal neurons assessed as increase in neuronal viability at 10 nM after 48 hrs relative to glutamate. The class given is functional, Hippocampus, Hippocampal neurone.
Assay [9] is described as follows: Increase in ERK2 phosphorylation in rat hippocampal neurons at 100 nM after 30 mins by Western immunoblotting relative to control. The class given is functional, Hippocampus, Hippocampal neurone. In general terms: Immunoblotting shows a protein as a band on a membrane.
Assay [10] concerns Hippocampal neurone. The assay is described as follows: Increase in Akt phosphorylation in rat hippocampal neurons at 100 nM after 30 mins by Western immunoblotting relative to control. The note with it: Hippocampus. The class given is tissue-based.
Assay [11] in a line: Increase in Bcl2 expression in rat hippocampal neurons at 10 nM after 48 hrs by Western immunoblotting relative to control. The class given is functional, Hippocampus, Hippocampal neurone.
The nature of assay [12]: Increase in Bcl-XL expression in rat hippocampal neurons at 10 nM after 48 hrs by Western immunoblotting relative to control. The class given is functional, Hippocampus, Hippocampal neurone.
Assay [13] in a line: Increase in spinophilin expression in rat hippocampal neurons at 10 nM after 48 hrs by Western immunoblotting relative to control. The class given is functional, Hippocampus, Hippocampal neurone.
Assay [14] has as its target T1, Estrogen receptor (Homo sapiens, UniProt P03372).
T1 sequence (P03372 whole entry): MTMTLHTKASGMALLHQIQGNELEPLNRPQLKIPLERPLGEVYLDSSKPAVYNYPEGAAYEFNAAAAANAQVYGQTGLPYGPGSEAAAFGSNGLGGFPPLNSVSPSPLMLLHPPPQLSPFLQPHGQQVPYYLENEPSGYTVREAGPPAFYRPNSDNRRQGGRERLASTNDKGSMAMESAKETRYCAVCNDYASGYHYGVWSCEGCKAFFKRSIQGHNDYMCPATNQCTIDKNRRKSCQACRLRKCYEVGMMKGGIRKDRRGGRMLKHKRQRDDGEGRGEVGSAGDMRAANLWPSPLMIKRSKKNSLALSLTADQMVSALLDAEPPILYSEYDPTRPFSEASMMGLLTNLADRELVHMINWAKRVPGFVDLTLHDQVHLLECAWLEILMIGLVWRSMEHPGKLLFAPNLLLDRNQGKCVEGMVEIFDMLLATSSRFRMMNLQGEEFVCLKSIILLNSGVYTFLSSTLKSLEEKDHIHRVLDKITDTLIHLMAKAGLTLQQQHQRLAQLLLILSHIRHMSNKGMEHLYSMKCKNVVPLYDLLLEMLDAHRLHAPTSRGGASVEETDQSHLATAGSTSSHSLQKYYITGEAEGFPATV
Description: Binding affinity to human ERalpha

For assay [15], the target named is Estrogen receptor beta (Homo sapiens, UniProt Q92731).
Sequence of Estrogen receptor beta (Q92731 whole entry): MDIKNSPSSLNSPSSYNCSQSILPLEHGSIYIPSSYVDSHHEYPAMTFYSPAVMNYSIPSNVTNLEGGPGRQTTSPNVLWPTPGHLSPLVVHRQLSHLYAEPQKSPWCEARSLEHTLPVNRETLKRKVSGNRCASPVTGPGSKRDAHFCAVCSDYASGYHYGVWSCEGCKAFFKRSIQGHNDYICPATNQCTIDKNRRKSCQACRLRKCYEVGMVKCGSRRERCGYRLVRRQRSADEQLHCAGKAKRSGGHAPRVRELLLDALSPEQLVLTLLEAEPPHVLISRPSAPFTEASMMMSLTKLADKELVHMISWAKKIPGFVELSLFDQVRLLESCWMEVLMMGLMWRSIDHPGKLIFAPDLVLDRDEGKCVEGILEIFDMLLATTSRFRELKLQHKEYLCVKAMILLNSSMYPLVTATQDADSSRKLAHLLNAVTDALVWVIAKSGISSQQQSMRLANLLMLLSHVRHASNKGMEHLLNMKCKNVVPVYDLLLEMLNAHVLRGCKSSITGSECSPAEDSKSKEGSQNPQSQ
Description: Binding affinity to human ERbeta
The species named for assay [16] is Homo sapiens. The assay is described as follows: Selectivity for ERbeta over ERalpha.

Usually IC50 stands for the midpoint of a concentration-inhibition curve.

With `CC(C)CCC[C@@H](C)CCC[C@@H](C)CCC[C@@H]1Cc2cc(O)ccc2[C@H]2CC[C@]3(C)[C@@H](O)CC[C@H]3[C@H]12`, the Activity in assay [1] turned out to be 38.6%; in [2], 44.1%; in assay [3], 67%; in assay [4], 59.1%; in assay [5] it was 28.4%; in [6], 25.6%. Moreover, the Activity in [7] came to 2.7%; in [8], 9.3%; in [9], 46.3%; in assay [10], 139%; in [11], 23.4%; in assay [12], 58%. For the same compound, in assay [13], the Activity was 61.7%. In addition, the results for the IC50 in [14] and in [15] were 193 nM and 267 nM, respectively.

On to `Oc1ccc(/C=C/c2cc(O)cc(O)c2)cc1`, for which the Selectivity ratio in assay [16] was found to be 48.

Source of the values: ChEMBL document CHEMBL1148765, “Design, synthesis, and estrogenic activity of a novel estrogen receptor modulator--a hybrid structure of 17beta-estradiol and vitamin E in hippocampal neurons” (J Med Chem, 2007).
